According to patent US10064831B2, “Active substances and cosmetic or dermatological preparations containing said active substances for the care of the skin of patients of diabetes mellitus” (BEIERSDORF AG, priority 2015, dated 2018):

Test system: glyoxalases
Experiment: induction of glyoxalase activity in skin cells
Type: cell-based
Conditions: no method or numbers given

C=CC(C)(C)c1cc(/C=C/C(=O)c2ccc(O)cc2)c(OC)cc1O [licochalcone A]
activity of glyoxalases induced in skin cells: enhanced activity of glyoxalases
